A short description of assay [1]: yeast lifespan-shortening chemical project counter-assay, dose-response inhibition of growth under permissive conditions (AID 850).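 Note: growth read as optical density after one day of incubation.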 To be noted: Saccharomyces cerevisiae growth inhibition, permissive control, measured here: maximum growth inhibition, stronger effect = higher value.
Assay [2] has as its system Saccharomyces cerevisiae growth inhibition, permissive control. The assay is described as above.

Structures are written as SMILES. Active and inactive are the calls of the source. The rule behind the calls is not given here.

This is an account of results in PubChem BioAssay AID850 (SRMLSC, 2007).

The inhibition is how much of the control response was suppressed. Broadly, the IC50 is the concentration that inhibits the measured activity by half. The compound `CC(C)(C)c1nnc(N/N=C/c2cc(Br)ccc2O)n(N)c1=O` yielded an inhibition in assay [1] (at 50 µM) of 50.9%. Also, in assay [2], the half-inhibitory concentration (IC50) is 49.9 µM.

`COc1ccc(-c2cc(=O)n(-c3nc4ccccc4[nH]3)[nH]2)cc1` had an inhibition in assay [1] (at 50 µM) of 98.2%. Also, the IC50 in assay [2] was 14.6 µM.

In turn, `Brc1ccccc1-c1nnc(CSc2nnc3sc4ccccc4n23)o1` had an inhibition in assay [1] (at 6.25 µM) of 13.3%. For the same compound, in assay [2], the IC50 is > 100 µM (inactive).

In assay [1] (at 0.195 µM), `Cc1ccc(NC(=O)CSC2=C(C#N)C(c3ccc4c(c3)OCO4)C3=C(CCCC3=O)N2)c(C)c1` (centres undefined) showed an inhibition of 8.26%. The IC50 in assay [2] is > 100 µM (inactive).

As to `CC1(C)C[C@H]2C=C(C=O)[C@]3(C=O)C[C@]3(C)[C@H]2C1`, the inhibition in assay [1] (at 50 µM) stood at 100%. For the same compound, the IC50 in assay [2] is 4.38 µM.

In assay [1] (at 25 µM), `O=C(/C=C/N1CCOCC1)c1ccc(-c2ccccc2)cc1` came in with an inhibition of 99.6%. Further, the IC50 in assay [2] is 7.19 µM.

`O=C1ON=C(c2ccccc2)/C1=C/c1ccc(OS(=O)(=O)c2ccccc2)cc1`: the inhibition in assay [1] (at 50 µM) amounted to 11.6%. Besides, in assay [2], the IC50 was > 100 µM (inactive).

`C=CCNC(=S)N/N=C(\C)c1ccccn1` displayed an inhibition in assay [1] (at 50 µM) of 99.4%. The IC50 in assay [2] is 13.8 µM.

In the case of `N#C/C(=C\c1ccc([N+](=O)[O-])o1)c1nc2ccccc2[nH]1`, the inhibition in assay [1] (at 6.25 µM) was found to be 21.4%. Besides, in assay [2], the IC50 was > 100 µM (inactive).

For `CCCn1c(CNc2ccccc2O)nc2ccccc21`, the inhibition in assay [1] (at 50 µM) was 18.9%. Also, the IC50 in assay [2] was > 100 µM (inactive).

`O=C(Nc1cc(C(F)(F)F)ccc1Cl)C(Sc1cccc[n+]1[O-])c1ccccc1` (centres undefined) gave an inhibition in assay [1] (at 50 µM) of 99.8%. The IC50 in assay [2] was 6.31 µM.

For the compound `N#C/C(=N/O)c1nc(-c2ccc(F)cc2)cs1`, the inhibition in assay [1] (at 50 µM) amounted to 78.8%. For the same compound, the IC50 in assay [2] is 15.9 µM.

Consider `Cc1cccc(C(=O)Oc2csc(=S)n2C(=O)c2cccc(C)c2)c1`, for which the inhibition in assay [1] (at 50 µM) amounted to 55.6%. The half-inhibitory concentration (IC50) in assay [2] is 47.8 µM.

For `Nc1c(Cl)ncnc1N/N=C/c1ccccn1`, the inhibition in assay [1] (at 50 µM) amounted to 99.2%. In addition, in assay [2], the half-maximal inhibitory concentration (IC50) was 8.45 µM.

For the compound `CC(C)(Oc1ccc(Cl)cc1)C(=O)NC1=NN(c2ccccc2)C(=O)C1`, in assay [1] (at 50 µM), the inhibition worked out at 88.3%. Further, the half-inhibitory concentration (IC50) in assay [2] was 21.5 µM.

On to `Oc1ccc(-c2csc(-c3ccccc3)n2)cc1O`, for which the inhibition in assay [1] (at 50 µM) turned out to be 99.8%. For the same compound, the IC50 in assay [2] was 21.9 µM.

In assay [1] (at 12.5 µM), `CCOC(=O)C1C(C)N=C2SCC(=O)N2C1c1cccc(Br)c1` (centres undefined) had an inhibition of 12.2%. For the same compound, in assay [2], the IC50 is > 100 µM (inactive).

For the compound `CC1(C)C(C=C(Cl)Cl)C1C(=O)Nc1ccc([N+](=O)[O-])cc1` (centres undefined), the inhibition in assay [1] (at 50 µM) is 15.4%. Besides, the IC50 in assay [2] was > 100 µM (inactive).

On to `O=C(N/N=C\c1cccc([N+](=O)[O-])c1O)C1COc2ccccc2O1` (centres undefined), for which the inhibition in assay [1] (at 50 µM) was found to be 74.8%. The IC50 in assay [2] was 22 µM.

In assay [1] (at 50 µM), `Cc1cc(C(=O)COC(=O)c2ccc[nH]c2=O)c(C)n1-c1ccc(F)cc1` had an inhibition of 12.8%. In addition, in assay [2], the IC50 was > 100 µM (inactive).

`FC(F)Sc1ccc(Nc2ncnc3nc[nH]c23)cc1` displayed an inhibition in assay [1] (at 1.563 µM) of 11.9%. Besides, the IC50 in assay [2] was > 100 µM (inactive).

In assay [1] (at 0.195 µM), `Cc1nn2c3ccccc3nc2c2ccccc12` returned an inhibition of 15.3%. Further, the IC50 in assay [2] was > 100 µM (inactive).

Regarding `Cc1cc(C)cc(NS(=O)(=O)c2cnc(Cl)c(Cl)c2)c1`, in assay [1] (at 12.5 µM), the inhibition was 19.5%. Besides, the IC50 in assay [2] was > 100 µM (inactive).

In assay [1] (at 12.5 µM), `CCCCCC/C(C)=C1/SC(=S)NC1=O` yielded an inhibition of 15.5%. The IC50 in assay [2] was > 100 µM (inactive).

In turn, `S=C(NCc1ccc(Cl)cc1Cl)NC1CCCCC1` yielded an inhibition in assay [1] (at 50 µM) of 22.8%. Moreover, the IC50 in assay [2] was > 100 µM (inactive).

In turn, `Cc1ccc(NN2C(=O)C=C(c3ccc(Cl)cc3)C2=O)cc1` returned an inhibition in assay [1] (at 50 µM) of 98%. Moreover, the IC50 in assay [2] is 9.53 µM.

With `CCn1c(=O)c(C(=O)Nc2nc3ccccc3[nH]2)c(O)c2ccccc21`, the inhibition in assay [1] (at 0.781 µM) turned out to be 24.2%. For the same compound, in assay [2], the IC50 is > 100 µM (inactive).

In assay [1] (at 3.125 µM), `N#Cc1ccccc1NC(=O)c1ccc2c(Cl)c3c(nc2c1)CCCC3` gave an inhibition of 13.6%. The IC50 in assay [2] was > 100 µM (inactive).

The compound `COC(=O)CSC1=NS(=O)(=O)c2ccccc21` registered an inhibition in assay [1] (at 12.5 µM) of 27.4%. Further, the IC50 in assay [2] is > 100 µM (inactive).

`CCCCCCCCCCCCCCCC[n+]1cccc2ccccc21` registered an inhibition in assay [1] (at 50 µM) of 100%. Further, the IC50 in assay [2] was 0.701 µM.

As to `O=C(COc1ccccc1)N1CCN=C1SCc1cccnc1`, the inhibition in assay [1] (at 0.781 µM) is 11.2%. Further, in assay [2], the IC50 was > 100 µM (inactive).

As to `Cn1c(C(=O)N2CCC(C(=O)N3CCN(Cc4ccc5c(c4)OCO5)CC3)CC2)cc2sccc21`, in assay [1] (at 12.5 µM), the inhibition was found to be 18%. The IC50 in assay [2] was > 100 µM (inactive).
